Reference: PMC4179164, “Ophiobolin A from Bipolaris oryzae Perturbs Motility and Membrane Integrities of Porcine Sperm and Induces Cell Death on Mammalian Somatic Cell Lines” (Toxins, 2014)
In brackets after ≈: the same amount, converted by molar mass.

What was measured:
boar spermatozoa [1] = experiment: Sperm motility inhibition assay (progressive and rapid motility); format: cell-based; conditions: 24 h, boar spermatozoa, 24 h exposure at room temperature, read-out: Toxic endpoint EC50, Motility inhibition (24 h)
Description: Furthermore, their physiological characters including their motility are influenced mainly by membrane potentials and ion fluxes. Thus, the change of sperm motility is able to sensitively indicate the substances causing mitochondrial membrane depolarization even at sublethal doses, which is undetectable with other cell lines. Motility of the spermatozoa was judged after exposure of 30 min and 24 h at room temperature with minor modification of a previously described method.
The sperm motility inhibition assay was done as reported by Andersson et al.. Commercial boar semen obtained from Figen Oy Finland extended in MR-A (Kubus, S.A., Madrid, Spain) containing 27 × 10^6 spermatozoa·mL^−1 was used. The purified OPA was diluted by serial dilutions in methanol obtaining two ranges of concentrations with 4-4 levels from 2500 μg mL^−1 to 250.0 μg mL^−1 and from 50 μg mL^−1 to 5.0 μg mL^−1, for short and long time exposures, respectively. Twenty μL of each dilution was administered to 2 mL of MR-A-diluted boar semen resulting approximately 100 times dilution of the original stock solutions; 20 μL of methanol was added to spermatozoa in the same way as a blank assay. The samples were incubated for 30 min and 24 h at room temperature for short and long term exposure assays, respectively. After exposure, motility was induced in the sperm cells by incubation in 37 °C for 5 min and shaking to provide the sperm cells with oxygen. […]
The above described subjective motility assay was calibrated with an automatic Hamilton Thorne sperm motility analyzer (HTM-S, ver. 7.2; Hamilton-Thorn Research, Danvers, MA, USA). […] Thus the protocol for assessing sperm tail beating as a measure of motility inhibition gave 99% similarity to measurements of the proportion of rapidly motile spermatozoa done with Hamilton Thorne sperm analyzer (HTM-S, ver. 7.2; Hamilton-Thorn Research, Danvers, MA, USA) Toxicity was expressed as the endpoint concentration of the OPA solution, where the progressive and rapid motility of the sperm cells were <50% of the vehicle exposed sperm cells. […]

boar spermatozoa [2] = experiment: Cell membrane permeability assay on motile sperm cells (PI staining); format: cell-based; conditions: boar spermatozoa, motile at 37 °C, 2 h; read-out: Toxic endpoint EC50, Permeability to PI on motile cells
Description: To test the effect of OPA exposure on sperm cells in physiological conditions (swimming at 37 °C) the plasma membrane disruption on motile sperm cells was measured with the viability PI stain, where the loss of plasma membrane integrity was detected as appearance of red color stained nuclei in the damaged cells. In this assay, sperm cells were exposed to OPA at 37 °C and motility of the exposed sperm cells was induced and maintained for 2 h.
Cell membrane permeability assay on motile sperm cells was inspected by staining with PI (Molecular Probes, Eugene, OR, USA) in sperm cells induced to swim by shaking at 37 °C. One hundred and fifty μL aliquots of commercial extended boar semen with a density of 27 × 10^6 sperms mL^−1 were pipetted into microtiter plate wells and serially diluted methanolic solution of OPA were added in the concentration range of 200 ng mL^−1 to 4 μg mL^−1 including 6 levels and an additional methanol blank, and pre-incubated for 2 h on orbital shaker (Innova 5000 new Brunswick Scientific, Enfield, CT, USA) (160 rpm) at 37 °C. Four parallel measurements were done for each dilution. One ml PI solution (1 mg mL^−1 in Dulbeco’s phosphate buffered saline) was mixed with 3 mL of […] Dulbeco’s phosphate buffered saline. One hundred and fifty μL of this stain mixture was added to 150 μL of exposed boar semen. This suspension was incubated for 15 min at 37 °C in dark and measured using a microplate reader (Fluoroskan Ascent, Thermo Scientific, Vantaa, Finland) at excitation and emission wavelengths of 544 nm and 600 nm, respectively. For observing plasma membrane damage by PI staining frozen-thawed semen was used as a positive control (for mortality of 100%) representing the maximal fluorescence emitted by the cells permeable to PI and Dulbeco’s phosphate buffered saline was applied as background control (blank). Loss of viability in the sample was calculated as described in Alm et al.. The frozen sample represented 100% loss of viability. The assay was calibrated with triclosan (Sigma Chemical Co., St. Louis, MO, USA), in 5 parallel tests, the EC50 was 2 μg mL^−1 (SD ± 0.6). Cell membrane permeability assay on static sperm cells at room temperature was carried out by viability staining with PI and calcein-AM (Molecular Probes, Eugene, OR, USA) according to Hoornstra et al. in same concentration range and levels described above.

[3] = Mammalian somatic cell toxicity assay calibration (cell line not stated); format: cell-based; conditions: 10 parallel tests, SD ± 3.4, cell line not stated
Description: Cytotoxicity against somatic cells was tested with feline fetus lung cells (FFL) cultivated as described by Andersson et al. and murine neuroblastoma cells (MNA) as described by Kulonen et al. as well as porcine kidney tubular epithelial cell line (PK-15), cultured as reported earlier. All somatic cell lines were maintained in an atmosphere of 95% air, 5% CO2 and 95% relative humidity at 37 °C on RPMI 1640 (complete medium) in a cell culture cabinet (Heracell 150i; Thermo Fisher Scientific, Vantaa, Finland). The detached cells were seeded onto 96 well microtiter plates and exposed to the purified OPA, the final concentration of which ranged from 48.8 ng mL^−1 to 25 μg mL^−1 containing 10 levels in methanol. After incubating the plates for one day at 37 °C, inhibition of cell proliferation was inspected in phase contrast microscope. EC100 for inhibition of proliferation was easy to observe as absence of cell monolayer and absence of intact cells in the well. EC0 was also easy to observe as an intact cell monolayer indistinguishable from the control. In microscope the determining of EC50 was more difficult. […] Then, the plates were analyzed by a microtiter plate reader (Fluoroskan Ascent, Thermo Scientific, Vantaa, Finland) at the excitation and emission wavelengths of 544 nm and 590 nm, respectively. […]

boar spermatozoa [4] = conditions: ref 4 (alamethicin, trilongin), 5 (acrebol), 6 (enniatin B), cited from earlier work
boar spermatozoa [5] = conditions: ref 4 (alamethicin, trilongin), 5 (acrebol), 6 (enniatin B); cited from earlier work
boar spermatozoa [6] = conditions: ref 4 (alamethicin, trilongin), 5 (acrebol), 6 (enniatin B); cited from earlier work; remark: listed apart in the source
boar spermatozoa [7] = conditions: ref 4 (alamethicin, trilongin), 5 (acrebol), 6 (enniatin B); cited from earlier work; remark: listed apart in the source
[8] = tested on: porcine kidney (PK-15) cells; conditions: ref 4 (alamethicin, trilongin), 5 (acrebol), 6 (enniatin B); cited from earlier work
boar spermatozoa [9] = conditions: ref 4 (alamethicin), 6 (enniatin B); cited from earlier work

Oc1cc(Cl)ccc1Oc1ccc(Cl)cc1Cl [triclosan]
EC50 (boar spermatozoa [1]): 1 µg/mL (≈ 3.45 µM) | EC50 (boar spermatozoa [2]): 2 µg/mL (≈ 6.91 µM) | EC50 at 3 days [3]: 9.4 µg/mL (≈ 32.5 µM)

Acrebol
Toxic endpoint EC50, Motility inhibition (30 min) (boar spermatozoa [4]): 2 µg/mL | Toxic endpoint EC50, Motility inhibition (24 h) (boar spermatozoa [4]): 0.1 µg/mL | Toxic endpoint EC50, Shivering tail beating induction (boar spermatozoa [5]): None | Toxic endpoint EC50, Dissipation of ΔΨm (boar spermatozoa [6]): 0.8 µg/mL | Toxic endpoint EC50, Permeability to PI on static cells (boar spermatozoa [7]): >4 µg/mL | Toxic endpoint EC50, Cytotoxicity, PK-15 cells [8]: ≥10 µg/mL

Alamethicin
Toxic endpoint EC50, Motility inhibition (30 min) (boar spermatozoa [4]): 1 µg/mL | Toxic endpoint EC50, Motility inhibition (24 h) (boar spermatozoa [4]): 0.2 µg/mL | Toxic endpoint EC50, Shivering tail beating induction (boar spermatozoa [5]): None | Toxic endpoint EC50, Dissipation of ΔΨm (boar spermatozoa [6]): 0.2 µg/mL | Toxic endpoint EC50, Permeability to PI on static cells (boar spermatozoa [7]): 0.2 µg/mL | Toxic endpoint EC50, Permeability to PI on motile cells (boar spermatozoa [9]): ≤0.5 µg/mL | Toxic endpoint EC50, Cytotoxicity, PK-15 cells [8]: 8 µg/mL

CC(C)[C@H]1C(=O)O[C@H](C(C)C)C(=O)N(C)[C@@H](C(C)C)C(=O)O[C@H](C(C)C)C(=O)N(C)[C@@H](C(C)C)C(=O)O[C@H](C(C)C)C(=O)N1C [Enniatin B]
Toxic endpoint EC50, Motility inhibition (30 min) (boar spermatozoa [4]): >10 µg/mL | Toxic endpoint EC50, Motility inhibition (24 h) (boar spermatozoa [4]): 5 µg/mL | Toxic endpoint EC50, Shivering tail beating induction (boar spermatozoa [5]): None | Toxic endpoint EC50, Dissipation of ΔΨm (boar spermatozoa [6]): 5 µg/mL | Toxic endpoint EC50, Permeability to PI on static cells (boar spermatozoa [7]): >50 µg/mL | Toxic endpoint EC50, Permeability to PI on motile cells (boar spermatozoa [9]): >20 µg/mL | Toxic endpoint EC50, Cytotoxicity, PK-15 cells [8]: 60 µg/mL
